{"source": "patent US20230085307A1", "about": "“PYRIDAZINONE COMPOUND AND HERBICIDE” (NISSAN CHEMICAL CORPORATION, priority 2019, published 2023)", "key": {"[1]": {"tested_on": "barnyard grass", "assay": "Test Example 3: herbicidal effect by foliage application, Wagner pot (Table 18, symbol H)", "format": "in vivo, barnyard grass (Echinochloa crus-galli)", "settings": "320 g/ha", "method_in_brief": "(§1)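 Plants were sown in alluvial soil held under 0.1–0.5 cm standing water and grown 14 days in a greenhouse at 25–30 °C. An emulsifiable formulation, water-diluted to the set dose, was then sprayed onto the foliage, and effects were scored three weeks later using previously defined criteria.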"}, "[2]": {"tested_on": "Chinese sprangletop", "assay": "Test Example 3: herbicidal effect by foliage application, Wagner pot (Table 18, symbol D)", "format": "in vivo, chinese sprangletop (Leptochloa chinensis)", "settings": "320 g/ha", "method_in_brief": "as §1"}, "[3]": {"tested_on": "rice flat sedge", "assay": "Test Example 3: herbicidal effect by foliage application, Wagner pot (Table 18, symbol E)", "format": "in vivo, rice flat sedge (Cyperus iria)", "settings": "320 g/ha", "method_in_brief": "as §1"}, "[4]": {"tested_on": "southern crabgrass", "assay": "Test Example 4: herbicidal effect by soil treatment (Table 19, symbol F)", "format": "in vivo, southern crabgrass (Digitaria ciliaris)", "settings": "amount of applied herbicide 320 g/ha", "method_in_brief": "(§2)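 In this soil treatment, the formulated compound reached the seeds only through the soil: seeds were buried about 1.5 cm deep in sterilized diluvial soil, then the diluted emulsion was sprayed over the surface. After three weeks at 25° C. to 30° C. in a greenhouse, effects were graded on criteria from an earlier test.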"}, "[5]": {"tested_on": "barnyard grass", "assay": "Test Example 4: herbicidal effect by soil treatment (Table 19, symbol H)", "format": "in vivo, barnyard grass (Echinochloa crus-galli)", "settings": "amount of applied herbicide 320 g/ha", "method_in_brief": "as §2"}, "[6]": {"tested_on": "wild oat", "assay": "Test Example 4: herbicidal effect by soil treatment (Table 19, symbol I)", "format": "in vivo, wild oat (Avena fatua)", "settings": "amount of applied herbicide 320 g/ha", "method_in_brief": "as §2"}, "[7]": {"tested_on": "blackgrass", "assay": "Test Example 4: herbicidal effect by soil treatment (Table 19, symbol J)", "format": "in vivo, blackgrass (Alopecurus myosuroides)", "settings": "amount of applied herbicide 320 g/ha", "method_in_brief": "as §2"}, "[8]": {"tested_on": "Italian ryegrass", "assay": "Test Example 4: herbicidal effect by soil treatment (Table 19, symbol K)", "format": "in vivo, Italian ryegrass (Lolium multiflorum)", "settings": "amount of applied herbicide 320 g/ha", "method_in_brief": "as §2"}, "[9]": {"tested_on": "windgrass", "assay": "Test Example 4: herbicidal effect by soil treatment (Table 19, symbol L)", "format": "in vivo, windgrass (Apera spica-venti)", "settings": "amount of applied herbicide 320 g/ha", "method_in_brief": "as §2"}, "[10]": {"tested_on": "velvetleaf", "assay": "Test Example 4: herbicidal effect by soil treatment (Table 19, symbol M)", "format": "in vivo, velvetleaf (Abutilon theophrasti)", "settings": "amount of applied herbicide 320 g/ha", "method_in_brief": "as §2"}, "[11]": {"tested_on": "redroot pigweed", "assay": "Test Example 4: herbicidal effect by soil treatment (Table 19, symbol N)", "format": "in vivo, redroot pigweed (Amaranthus retroflexus)", "settings": "amount of applied herbicide 320 g/ha", "method_in_brief": "as §2"}, "[12]": {"tested_on": "lambsquarters", "assay": "Test Example 4: herbicidal effect by soil treatment (Table 19, symbol O)", "format": "in vivo, lambsquarters (Chenopodium album)", "settings": "amount of applied herbicide 320 g/ha", "method_in_brief": "as §2"}, "[13]": {"tested_on": "chickweed", "assay": "Test Example 4: herbicidal effect by soil treatment (Table 19, symbol P)", "format": "in vivo, common chickweed (Stellaria media)", "settings": "amount of applied herbicide 320 g/ha", "method_in_brief": "as §2"}, "[14]": {"tested_on": "persian speedwell", "assay": "Test Example 4: herbicidal effect by soil treatment (Table 19, symbol R)", "format": "in vivo, Persian speedwell (Veronica persica)", "settings": "amount of applied herbicide 320 g/ha", "method_in_brief": "as §2"}, "[15]": {"tested_on": "southern crabgrass", "assay": "Test Example 5: herbicidal effect by foliage application, plastic box (Table 20, symbol F)", "format": "in vivo, southern crabgrass (Digitaria ciliaris)", "settings": "foliage application, 320 g/ha, three weeks after application", "method_in_brief": "(§3)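 Plants were sown into sterilized diluvial soil under about 1.5 cm cover and kept in a greenhouse at 25° C. to 30° C. Fourteen days on, foliage received an even spray of the diluted emulsion. Herbicidal or crop effect was judged three weeks afterwards.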"}, "[16]": {"tested_on": "green foxtail", "assay": "Test Example 5: herbicidal effect by foliage application, plastic box (Table 20, symbol G)", "format": "in vivo, green foxtail (Setaria viridis)", "settings": "foliage application, 320 g/ha, three weeks after application", "method_in_brief": "as §3"}, "[17]": {"tested_on": "barnyard grass", "assay": "Test Example 5: herbicidal effect by foliage application, plastic box (Table 20, symbol H)", "format": "in vivo, barnyard grass (Echinochloa crus-galli)", "settings": "foliage application, 320 g/ha, three weeks after application", "method_in_brief": "as §3"}, "[18]": {"tested_on": "wild oat", "assay": "Test Example 5: herbicidal effect by foliage application, plastic box (Table 20, symbol I)", "format": "in vivo, wild oat (Avena fatua)", "settings": "foliage application, 320 g/ha, three weeks after application", "method_in_brief": "as §3"}, "[19]": {"tested_on": "blackgrass", "assay": "Test Example 5: herbicidal effect by foliage application, plastic box (Table 20, symbol J)", "format": "in vivo, blackgrass (Alopecurus myosuroides)", "settings": "foliage application, 320 g/ha, three weeks after application", "method_in_brief": "as §3"}, "[20]": {"tested_on": "Italian ryegrass", "assay": "Test Example 5: herbicidal effect by foliage application, plastic box (Table 20, symbol K)", "format": "in vivo, Italian ryegrass (Lolium multiflorum)", "settings": "foliage application, 320 g/ha, three weeks after application", "method_in_brief": "as §3"}, "[21]": {"tested_on": "windgrass", "assay": "Test Example 5: herbicidal effect by foliage application, plastic box (Table 20, symbol L)", "format": "in vivo, windgrass (Apera spica-venti)", "settings": "foliage application, 320 g/ha, three weeks after application", "method_in_brief": "as §3"}, "[22]": {"tested_on": "velvetleaf", "assay": "Test Example 5: herbicidal effect by foliage application, plastic box (Table 20, symbol M)", "format": "in vivo, velvetleaf (Abutilon theophrasti)", "settings": "foliage application, 320 g/ha, three weeks after application", "method_in_brief": "as §3"}, "[23]": {"tested_on": "redroot pigweed", "assay": "Test Example 5: herbicidal effect by foliage application, plastic box (Table 20, symbol N)", "format": "in vivo, redroot pigweed (Amaranthus retroflexus)", "settings": "foliage application, 320 g/ha, three weeks after application", "method_in_brief": "as §3"}, "[24]": {"tested_on": "lambsquarters", "assay": "Test Example 5: herbicidal effect by foliage application, plastic box (Table 20, symbol O)", "format": "in vivo, lambsquarters (Chenopodium album)", "settings": "foliage application, 320 g/ha, three weeks after application", "method_in_brief": "as §3"}, "[25]": {"tested_on": "chickweed", "assay": "Test Example 5: herbicidal effect by foliage application, plastic box (Table 20, symbol P)", "format": "in vivo, common chickweed (Stellaria media)", "settings": "foliage application, 320 g/ha, three weeks after application", "method_in_brief": "as §3"}, "[26]": {"tested_on": "persian speedwell", "assay": "Test Example 5: herbicidal effect by foliage application, plastic box (Table 20, symbol R)", "format": "in vivo, Persian speedwell (Veronica persica)", "settings": "foliage application, 320 g/ha, three weeks after application", "method_in_brief": "as §3"}}, "data": [{"smiles": "CSc1ccccc1-c1sc2ccccc2c1-c1c(O)c(C)nn(C)c1=O", "note": "[1-034]", "values": [{"measurement": "herbicidal effect on H (barnyard grass), rating 0-5", "setting": "[1]", "result": "1 (Herbicidal rate of 5% or more and less than 20%)"}, {"measurement": "herbicidal effect on D (Chinese sprangletop), rating 0-5", "setting": "[2]", "result": "0 (Herbicidal rate of 5% or less (almost no effect))"}, {"measurement": "herbicidal effect on E (rice flat sedge), rating 0-5", "setting": "[3]", "result": "3 (Herbicidal rate of 40% or more and less than 70%)"}, {"measurement": "herbicidal effect rating, F: southern crabgrass", "setting": "[4]", "result": "0 (Herbicidal rate of 5% or less (almost no effect))"}, {"measurement": "herbicidal effect rating, H: barnyard grass", "setting": "[5]", "result": "0 (Herbicidal rate of 5% or less (almost no effect))"}, {"measurement": "herbicidal effect rating, I: wild oat", "setting": "[6]", "result": "0 (Herbicidal rate of 5% or less (almost no effect))"}, {"measurement": "herbicidal effect rating, J: blackgrass", "setting": "[7]", "result": "0 (Herbicidal rate of 5% or less (almost no effect))"}, {"measurement": "herbicidal effect rating, K: Italian ryegrass", "setting": "[8]", "result": "0 (Herbicidal rate of 5% or less (almost no effect))"}, {"measurement": "herbicidal effect rating, L: windgrass", "setting": "[9]", "result": "0 (Herbicidal rate of 5% or less (almost no effect))"}, {"measurement": "herbicidal effect rating, M: velvetleaf", "setting": "[10]", "result": "0 (Herbicidal rate of 5% or less (almost no effect))"}, {"measurement": "herbicidal effect rating, N: redroot pigweed", "setting": "[11]", "result": "0 (Herbicidal rate of 5% or less (almost no effect))"}, {"measurement": "herbicidal effect rating, O: lambsquarters", "setting": "[12]", "result": "0 (Herbicidal rate of 5% or less (almost no effect))"}, {"measurement": "herbicidal effect rating, P: chickweed", "setting": "[13]", "result": "3 (Herbicidal rate of 40% or more and less than 70%)"}, {"measurement": "herbicidal effect rating, R: persian speedwell", "setting": "[14]", "result": "0 (Herbicidal rate of 5% or less (almost no effect))"}, {"measurement": "herbicidal effect grade, F: southern crabgrass", "setting": "[15]", "result": "0 (Herbicidal rate of 5% or less (almost no effect))"}, {"measurement": "herbicidal effect grade, G: green foxtail", "setting": "[16]", "result": "0 (Herbicidal rate of 5% or less (almost no effect))"}, {"measurement": "herbicidal effect grade, H: barnyard grass", "setting": "[17]", "result": "0 (Herbicidal rate of 5% or less (almost no effect))"}, {"measurement": "herbicidal effect grade, I: wild oat", "setting": "[18]", "result": "2 (Herbicidal rate of 20% or more and less than 40%)"}, {"measurement": "herbicidal effect grade, J: blackgrass", "setting": "[19]", "result": "0 (Herbicidal rate of 5% or less (almost no effect))"}, {"measurement": "herbicidal effect grade, K: Italian ryegrass", "setting": "[20]", "result": "0 (Herbicidal rate of 5% or less (almost no effect))"}, {"measurement": "herbicidal effect grade, L: windgrass", "setting": "[21]", "result": "0 (Herbicidal rate of 5% or less (almost no effect))"}, {"measurement": "herbicidal effect grade, M: velvetleaf", "setting": "[22]", "result": "0 (Herbicidal rate of 5% or less (almost no effect))"}, {"measurement": "herbicidal effect grade, N: redroot pigweed", "setting": "[23]", "result": "0 (Herbicidal rate of 5% or less (almost no effect))"}, {"measurement": "herbicidal effect grade, O: lambsquarters", "setting": "[24]", "result": "0 (Herbicidal rate of 5% or less (almost no effect))"}, {"measurement": "herbicidal effect grade, P: chickweed", "setting": "[25]", "result": "4 (Herbicidal rate of 70% or more and less than 90%)"}, {"measurement": "herbicidal effect grade, R: persian speedwell", "setting": "[26]", "result": "1 (Herbicidal rate of 5% or more and less than 20%)"}]}]}
